Entries after “also recorded” stand apart in the source; their conditions may differ.
Assays:
mice [1] = assay: Open field test after 7 days of dosing; conditions: 15 mg/kg i.p. daily for 7 days; 3-4 h after last injection
Description: (§1) FIG. 15. The histograms of FIGS. 15A-15C appear in the order (left to right): control; MnCl2; AEOL 11114; AEOL 11207; AEOL 11203. Behavioral testing after dosing mice with AEOL11207, AEOL11114B or AEOL11203 (MnCl2 positive control). Mice (6 per group) were divided 5 groups treated with AEOL11207, AEOL11203, AEOL11114B, MnCl2 (all compound dissolved in 5% DMSO) or 5% DMSO alone by 15 mg/kg i.p. daily for a period of 7 days. At the end of treatment, mice were performed the behavioral tests by open field and accelerating rotorod test in 3-4 h after last injection. The total moving distance (FIG. 15A), moving velocity (FIG. 15B) in 5 minutes measured by open field test and the latency (seconds) from acceleration to fall from the rod (FIG. 15C) in the mice 7 days after injection of vehicle, MnCl2, AEOL11114, AEOL11207 and AEOL11203 i.p. (15 mg/kg daily). Bars represent mean+S.E.M. One-way, ANOVA, n=6-8 mice per group.
Open field test: The test is performed in mice treated with AEOL compounds or vehicle. The assessment is conducted over 2-4 days in a square arena mounted within specially designed sound-proof plexiglass shells. Each day a mouse is placed in the center of the open field arena and allowed to freely move about for 20-60 minutes while being tracked by an automated tracking system. […]

mice [2] = assay: Accelerating rotarod test after 7 days of dosing; conditions: 15 mg/kg i.p. daily for 7 days; 3-4 h after last injection
Description: as §1
Motor behavior assessment by accelerating rotarod test follows the protocol of Hamm et al. (Ferret et al., Hepatology 33:1173-1180, 2001). Rotarod test is performed by using an automated rotarod (Ugo Basile, Comerio, Italy) after AEOLs or vehicle injections. Animals are tested two consecutive daily trials (1 hour apart) with an accelerating mode (15, 20, 25, 30, 35 and 40 rpm) in 240 seconds for total 5 days. The average latency to fall from the rod will be recorded. […]

[3] = Plasma concentration in C57BL/6 mice after a single dose (15 mg/kg) by the i.p. or p.o. route; assay type: in vivo; conditions: for plasma concentration after i.p. administration / plasma concentration after p.o. administration: C57BL/6 mice; for plasma concentration after i.p. administration: single dose 15 mg/kg i.p.; for bioavailability / pharmacokinetic properties, overall assessment: mice, i.p. and p.o., summary in words; for plasma concentration after p.o. administration: single dose 15 mg/kg p.o.
Excerpt: (§2) Points represent mean±S.E.M. Each point is the average of 3-4 animals.
(§3) Points represent mean+S.E.M. Bars represent mean+S.E.M. n=3-6 mice per group. […] Bars represent mean+S.E.M. n=3-6 mice per group. […] Bars represent mean+S.E.M. #p<0.01 vs MPTP. One-way, ANOVA, n=6 mice per group.
(§4) Points represent mean±S.E.M. Each point is the average of 3-4 animals. […] Bars represent mean+S.E.M. n=6-8 mice per group. […] Bars represent mean+S.E.M. #p<0.01 vs MPTP. One-way, ANOVA, n=6 mice per group.
(§5) Points represent mean+S.E.M. Each point is the average of 4 animals. […] Bars represent mean+S.E.M. n=6 mice per group. […] Bars represent mean+S.E.M. #p<0.01 vs MPTP. One-way, ANOVA, n=6 mice per group.
Points represent mean+S.E.M. Each point is the average of 4 animals.

[4] = Brain concentration in C57BL/6 mice after a single dose (15 mg/kg) by the i.p. or p.o. route; assay type: in vivo; conditions: for concentration in the brain after i.p. administration / concentration in the brain after p.o. administration / concentration in the brain, stable for 24 hr after i.p. administration / concentration in the brain for 24 hr after p.o. administration: C57BL/6 mice; for concentration in the brain after i.p. administration / concentration in the brain, stable for 24 hr after i.p. administration: single dose 15 mg/kg i.p.; for concentration in the brain after i.p. administration / concentration in the brain after p.o. administration: result in words; for concentration in the brain after p.o. administration / concentration in the brain for 24 hr after p.o. administration: single dose 15 mg/kg p.o.; for penetration of the BBB: 15 mg/kg, i.p. (AEOL11216), i.p. and p.o. (AEOL11203, AEOL1114)
Excerpt: as §2, §3, §4, §5

[5] = Solubility of the compound for dosing; assay type: physicochemical; conditions: result in words
MPTP mouse model [6] = assay: Dopamine levels in the striata 7 days after injection of MPTP; assay type: in vivo, C57BL/6 mice; conditions: for protection against MPTP-induced striatal dopamine depletion: 1 hr prior to MPTP and daily thereafter, MPTP 15 mg/kg x3 s.c., 7 days
Excerpt: as §3, §4, §5

MPTP mouse model [7] = assay: GSH, GSSG, GSH/GSSG and 3NT/Tyr ratios in ventral midbrain/SN 24 hours after MPTP; assay type: in vivo, C57/B6 mice; conditions: for protection against MPTP-induced alteration of 3-NT/tyrosine ratio / protection against MPTP-induced alteration of GSH/GSSG: 24 hours after MPTP
Excerpt: as §3, §4, §5

MPTP metabolism = assay: Striatal MPP+ levels 3 h after MPTP (effects on MPTP metabolism); assay type: in vivo, mice; conditions: 15 mg/kg i.p. 1 h before MPTP (15 mg/kg s.c.)
Excerpt: Bars represent mean+S.E.M. n=4-6 mice per group.

MPTP mouse model [8] = assay: Stereological count of TH+ neurons in the substantia nigra pars compacta 7 days after MPTP; assay type: in vivo, C57BL/6 mice; conditions: MPTP 15 mg/kg x3 s.c.
Description: as §3
Assessment of tyrosine hydroxylase (TH) neurons: Free-floating […] mesencephalic serial sections will be processed with antibodies against TH for immunohistochemistry (Vector Laboratories) and counterstained with cresyl violet. Total numbers of TH and cresyl violet-stained neurons in SNpc is counted stereologically with STEREO INVESTIGATOR software.
Stereological analysis and TH immunohistochemistry: The 40-μm sections including the whole SN pars compacta (SNpc) from bregma −2.60 to −3.80 mm is immunostained with a rabbit antibody to TH (Chemicon, Temecula, Calif.) using the ABC method (ABC Elite Kit, Vector Laboratories, Burlingame, Calif.). The number of TH-positive neurons is quantified using stereo investigator software (MicroBrightfield, Williston, Vt.) by a previously described method (West, Trends in Neurosciences 22:51-61, 1999; Liang et al., J Neurosci 27:4326-4333, 2007).
Bars represent mean+S.E.M. n=6.

SMILES	plasma concentration after i.p. administration ([3]; result in words)	bioavailability / pharmacokinetic properties, overall assessment [3]	concentration in the brain after i.p. administration [4]	concentration in the brain after p.o. administration [4]	solubility [5]	penetration of the BBB [4]	concentration in the brain, stable for 24 hr after i.p. administration [4]	protection against MPTP-induced striatal dopamine depletion (MPTP mouse model [6]; 15 mg/kg i.p.)	protection against MPTP-induced alteration of 3-NT/tyrosine ratio (MPTP mouse model [7]; 15 mg/kg x3 daily i.p.)	protection against MPTP-induced alteration of GSH/GSSG (MPTP mouse model [7]; 15 mg/kg x3 daily i.p.)	effect on striatal MPP+ levels (MPTP metabolism)	other results
[Cl][Mn][Cl] [MnCl2]	–	–	–	–	–	–	–	–	–	–	–	open field test (total moving distance, moving velocity) versus other groups (mice [1]): no statistically significant differences; accelerating rotorod test (latency to fall) versus other groups (mice [2]): no statistically significant differences
COC(=O)c1ccc(C2=C3C=CC(=N3)C(C=O)=c3ccc4[n]3[Mn+][n]3c(ccc32)C(C=O)=C2C=CC(=N2)C=4c2ccc(C(=O)OC)cc2)cc1 [AEOL11209]	low but achievable	unfavorable pharmacokinetic or oral bioavailability; also recorded: poor bioavailability	variable and relatively low	variable and relatively low	a major issue; also recorded: solubility issues	–	–	–	–	–	–	–
COC(=O)C1=C2C=CC(=N2)C(C(=O)OC)=c2ccc3[n]2[Mn+][n]2c1ccc2C(C(=O)OC)=C1C=CC(=N1)C=3C(=O)OC [AEOL11203]	relative high	–	good brain bioavailability	good brain bioavailability	good	penetrated the BBB	> 100 nM	statistically significant protection	significantly protected	significantly protected	none of the AEOL compounds tested altered the levels of MPP+	plasma concentration after p.o. administration [3]: ~5 µM; concentration in the brain for 24 hr after p.o. administration [4]: ~50 nM; efficacy in the MPTP mouse model, overall assessment (MPTP mouse model [6]; summary in words): promising efficacy
CCCOC(=O)C1=C2C=CC(=N2)C(C(=O)OCCC)=c2ccc3[n]2[Mn][n]2c1ccc2C(C(=O)OCCC)=C1C=CC(=N1)C=3C(=O)OCCC [AEOL11215]	moderate levels	poor bioavailability; also recorded: unfavorable pharmacokinetic or oral bioavailability	not reliably detectable	–	–	–	–	–	–	–	–	plasma concentration after p.o. administration ([3]; result in words): not reliably detected
COC(=O)c1ccc(C2=C3C=CC(=N3)C(C(F)(F)F)=c3ccc4[n]3[Mn+][n]3c2ccc3C(C(F)(F)F)=C2C=CC(=N2)C=4c2ccc(C(=O)OC)cc2)cc1 [AEOL1114]	–	good pharmacokinetic properties, brain penetration, oral bioavailability	–	–	favorable solubility properties	penetrated the BBB	> 200 nM	statistically significant protection	significantly protected	significantly protected	none of the AEOL compounds tested altered the levels of MPP+	plasma concentration after i.p. administration [3]: ~20 µM; concentration in the brain for 24 hr after p.o. administration [4]: > 200 nM; protection against MPTP-induced striatal dopamine depletion (MPTP mouse model [6]; 15 mg/kg p.o.): statistically significant protection; protection against MPTP-induced dopaminergic (TH+) neuronal loss in the substantia nigra pars compacta (MPTP mouse model [8]; 15 mg/kg i.p.): prevents MPTP-induced loss of TH+ dopamine neurons; protection against MPTP-induced dopaminergic (TH+) neuronal loss in the substantia nigra pars compacta (MPTP mouse model [8]; 15 mg/kg p.o.): prevents MPTP-induced loss of TH+ dopamine neurons; protection against MPTP-induced alteration of 3-NT/tyrosine ratio (MPTP mouse model [7]; 15 mg/kg x3 daily p.o.): significantly protected; protection against MPTP-induced alteration of GSH/GSSG (MPTP mouse model [7]; 15 mg/kg x3 daily p.o.): significantly protected; efficacy against MPTP-induced oxidative stress, overall assessment (MPTP mouse model [7]; summary in words): efficacy against MPTP-induced oxidative stress
COC(=O)c1c2nc(c(C(F)(F)F)c3ccc([n-]3)c(C(=O)OC)c3nc(c(C(F)(F)F)c4ccc1[n-]4)C=C3)C=C2.[Cl-].[Mn+3] [AEOL11207]	–	–	–	–	–	–	–	–	–	–	none of the AEOL compounds tested altered the levels of MPP+	–
FC(F)(F)C1=C2C=CC(=N2)C(C(F)(F)F)=c2ccc3[n]2[Mn+][n]2c1ccc2C(C(F)(F)F)=C1C=CC(=N1)C=3C(F)(F)F [AEOL11256]	relatively low	–	undetectable	undetectable	a major issue	–	–	–	–	–	none of the AEOL compounds tested altered the levels of MPP+	plasma concentration after p.o. administration ([3]; result in words): relatively low
CCCOC(=O)C1=C2C=CC(=N2)C(C(F)(F)F)=c2ccc3[n]2[Mn][n]2c1ccc2C(C(F)(F)F)=C1C=CC(=N1)C=3C(=O)OCCC [AEOL11216]	high plasma concentrations	–	–	–	–	penetrated the BBB	more than 100 nM	did not significantly prevent	significantly protected	significantly protected	–	protection against MPTP-induced dopaminergic (TH+) neuronal loss in the substantia nigra pars compacta (MPTP mouse model [8]; 15 mg/kg i.p.): significantly protected

Reference: patent US20130225545A1, “PORPHYRIN TREATMENT OF NEURODEGENERATIVE DISEASES” (priority 2010, published 2013)
